In data set [1] the test system is Magnaporthe grisea; Anamorph: Pyricularia oryzae. It counts as in vivo. The settings on record: 100 ppm, 1 DP (1 Day Protectant), rice.
In data set [2] the test system is Leptosphaeria nodorum. Description: Fungicidal activity: Wheat Glume Blotch (LEPTNO). The settings on record: 100 ppm, 1 DP (1 Day Protectant). It counts as in vivo. Here is the method: Technical grades of materials were dissolved in acetone, which were then mixed with nine volumes of water containing 110 ppm Triton X-100. The fungicide solutions were applied onto wheat seedlings using an automated booth sprayer to run-off. All sprayed plants were allowed to air dry prior to further handling. All fungicides were evaluated using the aforementioned method for their activity vs. all target diseases, unless stated otherwise. Wheat leaf blotch and brown rust activity were also evaluated using track spray applications, in which case the fungicides were formulated as EC formulations, containing 0.1% Trycol 5941 in the spray solutions. Wheat plants (variety Yuma) were grown from seed in a greenhouse in 50% mineral soil/50% soil-less Metro mix until the first leaf was fully emerged, with 7-10 seedlings per pot. These plants were inoculated with an aqueous spore suspension of Septoria tritici either prior to or after fungicide treatments. After inoculation the plants were kept in 100% relative humidity (one day in a dark dew chamber followed by two to three days in a lighted dew chamber at 20° C.) to permit spores to germinate and infect the leaf. The plants were then transferred to a greenhouse set at 20° C. for disease to develop. When disease symptoms were fully expressed on the 1st leaves of untreated plants, infection levels were assessed on a scale of 0 to 100 percent disease severity. Percent disease control was calculated using the ratio of disease severity on treated plants relative to untreated plants. Evaluation of Fungicidal Activity: Wheat Glume Blotch (Leptosphaeria nodorum; Bayer Code […]) Wheat plants (variety Yuma) were grown from seed in a greenhouse in 50% mineral soil/50% soil-less Metro mix until the first leaf was fully emerged, with 7-10 seedlings per pot. These plants were inoculated with an aqueous spore suspension of Leptosphaeria nodorum 24 hr after fungicide treatments. After inoculation the plants were kept in 100% relative humidity (one day in a dark dew chamber followed by two days in a lighted dew chamber at 20° C.) to permit spores to germinate and infect the leaf. The plants were then transferred to a greenhouse set at 20° C. for disease to develop. Fungicide formulation, application and disease assessment followed the procedures as described in the Example A.

Data set [3] has as its system Venturia inaequalis. Description: Fungicidal activity: Apple Scab (VENTIN). Type of data set: in vivo. The settings on record: 100 ppm, 1 DP (1 Day Protectant).
Data set [4] deals with Cercospora beticola. Description: Fungicidal activity: Leaf Spot of Sugar Beets (CERCBE). Type of data set: in vivo. To be noted: 100 ppm, 1 DP (1 Day Protectant), sugar beet. Here is the method: Technical grades of materials were dissolved in acetone, which were then mixed with nine volumes of water containing 110 ppm Triton X-100. The fungicide solutions were applied onto wheat seedlings using an automated booth sprayer to run-off. All sprayed plants were allowed to air dry prior to further handling. All fungicides were evaluated using the aforementioned method for their activity vs. all target diseases, unless stated otherwise. Wheat leaf blotch and brown rust activity were also evaluated using track spray applications, in which case the fungicides were formulated as EC formulations, containing 0.1% Trycol 5941 in the spray solutions. Wheat plants (variety Yuma) were grown from seed in a greenhouse in 50% mineral soil/50% soil-less Metro mix until the first leaf was fully emerged, with 7-10 seedlings per pot. These plants were inoculated with an aqueous spore suspension of Septoria tritici either prior to or after fungicide treatments. After inoculation the plants were kept in 100% relative humidity (one day in a dark dew chamber followed by two to three days in a lighted dew chamber at 20° C.) to permit spores to germinate and infect the leaf. The plants were then transferred to a greenhouse set at 20° C. for disease to develop. When disease symptoms were fully expressed on the 1st leaves of untreated plants, infection levels were assessed on a scale of 0 to 100 percent disease severity. Percent disease control was calculated using the ratio of disease severity on treated plants relative to untreated plants. Evaluation of Fungicidal Activity: Leaf Spot of Sugar Beets (Cercospora beticola; Bayer Code CERCBE) Sugar beet plants (variety HH88) were grown in soil-less Metro mix and trimmed regularly to maintain a uniform plant size prior to test. Plants were inoculated with a spore suspension 24 hr after fungicide treatments. Inoculated plants were kept in a dew chamber at 22° C. for 48 hr then incubated in a greenhouse set at 24° C. under a clear plastic hood with bottom ventilation until disease symptoms were fully expressed. Fungicide formulation, application and disease assessment on the sprayed leaves followed the procedures as described in the Example A.

The subject of data set [5] is Erysiphe cichoracearum. Description: Fungicidal activity: Powdery Mildew of Cucumber (ERYSCI). Type of data set: in vivo. The settings on record: 100 ppm, 1 DP (1 Day Protectant).
In data set [6] the test system is Uncinula necator. Description: Fungicidal activity: Grape Powdery Mildew (UNCINE). It counts as in vivo. The settings on record: 100 ppm, 1 DP (1 Day Protectant). Here is the method: Technical grades of materials were dissolved in acetone, which were then mixed with nine volumes of water containing 110 ppm Triton X-100. The fungicide solutions were applied onto wheat seedlings using an automated booth sprayer to run-off. All sprayed plants were allowed to air dry prior to further handling. All fungicides were evaluated using the aforementioned method for their activity vs. all target diseases, unless stated otherwise. Wheat leaf blotch and brown rust activity were also evaluated using track spray applications, in which case the fungicides were formulated as EC formulations, containing 0.1% Trycol 5941 in the spray solutions. Wheat plants (variety Yuma) were grown from seed in a greenhouse in 50% mineral soil/50% soil-less Metro mix until the first leaf was fully emerged, with 7-10 seedlings per pot. These plants were inoculated with an aqueous spore suspension of Septoria tritici either prior to or after fungicide treatments. After inoculation the plants were kept in 100% relative humidity (one day in a dark dew chamber followed by two to three days in a lighted dew chamber at 20° C.) to permit spores to germinate and infect the leaf. The plants were then transferred to a greenhouse set at 20° C. for disease to develop. When disease symptoms were fully expressed on the 1st leaves of untreated plants, infection levels were assessed on a scale of 0 to 100 percent disease severity. Percent disease control was calculated using the ratio of disease severity on treated plants relative to untreated plants. Evaluation of Fungicidal Activity: Grape Powdery Mildew (Uncinula necator; Bayer code […]) Grape seedlings (variety Carignane) were grown in soil-less Metro mix, with one plant per pot, and used in the test when approximately one month old. Plants were inoculated 24 hr after fungicide treatment by shaking spores from infected leaves over test plants. Plants were maintained in a greenhouse set at 20° C. until disease was fully developed. […]

Data set [7] deals with Blumeria graminis f. sp. tritici. Description: Fungicidal activity: Wheat Powdery Mildew (ERYSGT). Type of data set: in vivo. To be noted: 100 ppm, 1 DP (1 Day Protectant).
The subject of data set [8] is Phakopsora pachyrhizi. The experiment in a line: Fungicidal activity: Asian Soybean Rust (PHAKPA). The settings on record: 25 ppm, 1DP (1 Day Protectant). It counts as in vivo. Here is the method: Evaluation of Fungicidal Activity: Asian Soybean Rust (Phakopsora pachyrhizi; Bayer Code PHAKPA)
Technical grades of materials were dissolved in acetone, which were then mixed with nine volumes of water containing 0.011% Tween 20. The fungicide solutions were applied onto soybean seedlings using an automated booth sprayer to run-off. All sprayed plants were allowed to air dry prior to further handling.
Soybean plants (variety Williams 82) were grown in soil-less Metro mix, with one plant per pot. Two weeks old seedlings were used for testing. Plants were inoculated either 3 days prior to or 1 day after fungicide treatments. Plants were incubated for 24 h in a dark dew room at 22° C. and 100% relative humidity then transferred to a growth room at 23° C. for disease to develop. Disease severity was assessed on the sprayed leaves.

On to `CCCC[C@@H]1[C@@H](Cc2ccccc2)COC[C@H](NC(=O)c2nccc(OC)c2OCOC(=O)C(C)C)C(=O)O[C@H]1C` [compound 1], for which the “PYRIOR disease control rating” value in [1] is “A (>70)”. Further, the “LEPTNO disease control rating” value in data set [2] was “A (>70)”. Besides, the “VENTIN disease control rating” value in data set [3] is recorded as “B (≤70)”. Moreover, in data set [4], the “CERCBE disease control rating” value is “A (>70)”. In addition, the “ERYSCI disease control rating” value in data set [5] is “A (>70)”. For the same compound, the “UNCINE disease control rating” value in [6] is recorded as “A (>70)”.

As for `COc1ccnc(C(=O)N[C@H]2COC[C@H](CC3CC3)[C@@H](c3ccccc3)[C@H](C)OC2=O)c1OC(C)=O` [compound 100], the “PYRIOR disease control rating” value in data set [1] is “A (>70)”. For the same compound, the “LEPTNO disease control rating” value in data set [2] is recorded as “A (>70)”. Moreover, in data set [4], the “CERCBE disease control rating” value is “A (>70)”. In addition, the “ERYSCI disease control rating” value in [5] was “A (>70)”.

`CCCC[C@@H]1[C@@H](Cc2ccc(C(F)(F)F)cc2)COC[C@H](NC(=O)c2nccc(OC)c2OCOC(C)=O)C(=O)O[C@H]1C` [compound 16]: the “LEPTNO disease control rating” value in data set [2] is recorded as “A (>70)”. For the same compound, the “VENTIN disease control rating” value in data set [3] was “A (>70)”. In [4], the “CERCBE disease control rating” value was “A (>70)”. Further, the “ERYSCI disease control rating” value in [5] is on record as “A (>70)”. Moreover, in [6], the “UNCINE disease control rating” value was “A (>70)”.

In turn, `COc1ccnc(C(=O)N[C@H]2COC[C@H](c3ccccc3)[C@@H](c3ccccc3)[C@H](C)OC2=O)c1OCOC(C)=O` [compound 7] came in with a melting point of 59 to 64 °C. Further, in data set [1], the “PYRIOR disease control rating” value is reported as “A (>70)”. Moreover, the “ERYSGT disease control rating” value in [7] is recorded as “A (>70)”. Also, the “CERCBE disease control rating” value in [4] is recorded as “A (>70)”. Further, the “ERYSCI disease control rating” value in [5] was “A (>70)”. Besides, the “UNCINE disease control rating” value in data set [6] was “A (>70)”.

In turn, `COc1ccnc(C(=O)N[C@H]2COC[C@H](Cc3ccccc3)[C@@H](Cc3ccccc3)[C@H](C)OC2=O)c1OC(C)=O` [compound 27] had a melting point of 67 to 71 °C. For the same compound, the “PYRIOR disease control rating” value in data set [1] is on record as “A (>70)”. Besides, the “LEPTNO disease control rating” value in data set [2] is given as “A (>70)”. In [4], the “CERCBE disease control rating” value is recorded as “A (>70)”. Also, the “ERYSCI disease control rating” value in [5] was “B (≤70)”.

The compound `COc1ccnc(C(=O)N[C@H]2COC[C@H](Cc3ccccc3)[C@@H](Cc3ccccc3)[C@H](C)OC2=O)c1OCOC(C)=O` [Cmpd. 3, ((2-(((3S,7R,8R,9S)-7,8-dibenzyl-9-methyl-2-oxo-1,5-dioxonan-3-yl)carbamoyl)-4-methoxypyridin-3-yl)oxy)methyl acetate] displayed a melting point of 56 to 60 °C. The “PYRIOR disease control rating” value in data set [1] is “A (>70)”. In addition, the “LEPTNO disease control rating” value in data set [2] is “A (>70)”. In [8], the “PHAKPA disease control rating” value is recorded as “A (>70)”.

Source of the values: patent US9955691B2, “Macrocyclic picolinamides as fungicides” (DOW AGROSCIENCES LLC, priority 2014, dated 2018).
